In PubChem BioAssay (NCI):
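The compound was tested at five concentrations on cells cultured in 96-well plates, with a 48-hour exposure period. The concentration for full growth arrest is given as TGI.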

Columns and labels:
Assay in all cases: NCI tumour cell line growth inhibition, 48 h
786-0 renal = test system: 786-0 renal
A498 renal = test system: A498 renal
A549 NSCLC = test system: A549 NSCLC
ACHN renal = test system: ACHN renal
CAKI-1 renal = test system: CAKI-1 renal
CCRF-CEM leukemia = test system: CCRF-CEM leukemia
COLO 205 colon = test system: COLO 205 colon
DU-145 prostate = test system: DU-145 prostate
EKVX NSCLC = test system: EKVX NSCLC
HCC-2998 colon = test system: HCC-2998 colon
HCT-116 colon = test system: HCT-116 colon
HCT-15 colon = test system: HCT-15 colon
HL-60(TB) leukemia = test system: HL-60(TB) leukemia
HOP-62 NSCLC = test system: HOP-62 NSCLC
HOP-92 NSCLC = test system: HOP-92 NSCLC
HS 578T breast = test system: HS 578T breast
HT29 colon = test system: HT29 colon
K-562 leukemia = test system: K-562 leukemia
KM12 colon = test system: KM12 colon
LOX IMVI melanoma = test system: LOX IMVI melanoma
M14 melanoma = test system: M14 melanoma
MALME-3M melanoma = test system: MALME-3M melanoma
MCF7 breast = test system: MCF7 breast
MDA-MB-231 breast = test system: MDA-MB-231 breast
MDA-MB-435 = test system: MDA-MB-435
MDA-N = test system: MDA-N
MOLT-4 leukemia = test system: MOLT-4 leukemia
NCI-H226 lung = test system: NCI-H226 lung
NCI-H23 lung = test system: NCI-H23 lung
NCI-H460 lung = test system: NCI-H460 lung
NCI-H522 lung = test system: NCI-H522 lung
NCI/ADR-RES ovarian = test system: NCI/ADR-RES ovarian
OVCAR-3 ovarian = test system: OVCAR-3 ovarian
OVCAR-5 ovarian = test system: OVCAR-5 ovarian
OVCAR-8 ovarian = test system: OVCAR-8 ovarian
PC-3 prostate = test system: PC-3 prostate
RPMI-8226 leukemia = test system: RPMI-8226 leukemia
RXF 393 renal = test system: RXF 393 renal
SF-268 CNS = test system: SF-268 CNS
SF-295 CNS = test system: SF-295 CNS
SF-539 CNS = test system: SF-539 CNS
SK-MEL-2 melanoma = test system: SK-MEL-2 melanoma
SK-MEL-28 melanoma = test system: SK-MEL-28 melanoma
SK-MEL-5 melanoma = test system: SK-MEL-5 melanoma
SK-OV-3 ovarian = test system: SK-OV-3 ovarian
SN12C renal = test system: SN12C renal
SNB-19 CNS = test system: SNB-19 CNS
SNB-75 CNS = test system: SNB-75 CNS
SR leukemia = test system: SR leukemia
SW-620 colon = test system: SW-620 colon
T-47D breast = test system: T-47D breast
TK-10 renal = test system: TK-10 renal
U251 CNS = test system: U251 CNS
UACC-257 melanoma = test system: UACC-257 melanoma
UACC-62 melanoma = test system: UACC-62 melanoma
UO-31 renal = test system: UO-31 renal
IGROV1 ovarian = test system: IGROV1 ovarian
OVCAR-4 ovarian = test system: OVCAR-4 ovarian

Measured: TGI

CN(C)N1C(=O)SCC(c2ccccc2)(c2ccccc2)C1=O
> 100 µM: 786-0 renal | A498 renal | A549 NSCLC | ACHN renal | CAKI-1 renal | CCRF-CEM leukemia | COLO 205 colon | DU-145 prostate | EKVX NSCLC | HCC-2998 colon | HCT-116 colon | HCT-15 colon | HL-60(TB) leukemia | HOP-62 NSCLC | HOP-92 NSCLC | HS 578T breast | HT29 colon | K-562 leukemia | KM12 colon | LOX IMVI melanoma | M14 melanoma | MALME-3M melanoma | MCF7 breast | MDA-MB-231 breast | MDA-MB-435 | MDA-N | MOLT-4 leukemia | NCI-H226 lung | NCI-H23 lung | NCI-H460 lung | NCI-H522 lung | NCI/ADR-RES ovarian | OVCAR-3 ovarian | OVCAR-5 ovarian | OVCAR-8 ovarian | PC-3 prostate | RPMI-8226 leukemia | RXF 393 renal | SF-268 CNS | SF-295 CNS | SF-539 CNS | SK-MEL-2 melanoma | SK-MEL-28 melanoma | SK-MEL-5 melanoma | SK-OV-3 ovarian | SN12C renal | SNB-19 CNS | SNB-75 CNS | SR leukemia | SW-620 colon | T-47D breast | TK-10 renal | U251 CNS | UACC-257 melanoma | UACC-62 melanoma | UO-31 renal

O=C1C[C@@]23CCC4(CC2CCC[C@H]3O1)OCCO4 (some centres undefined)
> 100 µM: 786-0 renal | A498 renal | A549 NSCLC | ACHN renal | COLO 205 colon | DU-145 prostate | EKVX NSCLC | HCC-2998 colon | HCT-116 colon | HCT-15 colon | HL-60(TB) leukemia | HOP-62 NSCLC | HOP-92 NSCLC | HS 578T breast | HT29 colon | IGROV1 ovarian | K-562 leukemia | KM12 colon | LOX IMVI melanoma | M14 melanoma | MALME-3M melanoma | MCF7 breast | MDA-MB-231 breast | MDA-MB-435 | MDA-N | MOLT-4 leukemia | NCI-H226 lung | NCI-H23 lung | NCI-H460 lung | NCI-H522 lung | NCI/ADR-RES ovarian | OVCAR-3 ovarian | OVCAR-4 ovarian | OVCAR-5 ovarian | OVCAR-8 ovarian | PC-3 prostate | RPMI-8226 leukemia | RXF 393 renal | SF-268 CNS | SF-295 CNS | SF-539 CNS | SK-MEL-2 melanoma | SK-MEL-28 melanoma | SK-MEL-5 melanoma | SK-OV-3 ovarian | SN12C renal | SNB-19 CNS | SR leukemia | SW-620 colon | T-47D breast | U251 CNS | UACC-257 melanoma | UACC-62 melanoma
